How the values were obtained:
melanin = assay: Binding capacity of compounds to melanin; assay type: in vitro ADME, cuttlefish (Sepia officinalis); conditions: cuttlefish (Sepia officinalis), melanin suspension (1 mg/mL); 1 mg/mL melanin in PBS pH 7.4, 2 μM compound, 2 h at 37° C.; read-out: Fu % (percentage of free drug)
Excerpt: Pigmented eye tissues contain melanin in intracellular melanosomes. Drugs bind to melanin to varying degrees, ranging from non-binding to extensive binding. Therefore, melanin binding is an important feature that affects drug delivery and biodistribution in the eye. The binding capacity of the compound to the melanin must be considered in the development of ophthalmic drugs.
Melanin was derived from the melanin of cuttlefish (Sepia officinalis) and was commercially available from Sigma Aldrich (St Louis, MO).
First, prepare 1 mg/mL melanin suspension with PBS (pH 7.4). As a washing step for the matrix, centrifuge the suspended particles for 5 min at 3000 rpm. Resuspend the resulting particles in a fresh PBS buffer, heat to 37° C. over continuous shaking and incubate it for 1 h. Accurately pipette 2 μL of the test stock solution (0.1 mM) into 98 μL of melanin suspension (1 mg/mL) to achieve a final incubation concentration of 2 μM. Similarly, accurately pipette 2 μL of the stock solution (0.1 mM) to 98 μL of PBS buffer (containing 0.1% BSA) as a blank control sample. Incubate the samples in a shaker (80-90 rpm) for 2 h at 37° C. Then, centrifuge the samples at room temperature. Pipette 50 μL of the supernatant and add 50 μL of precipitant (containing an internal standard). After protein precipitation of all the above samples, centrifuge the samples to collect the supernatants, dilute the supernatants with water (if necessary) and inject them for analysis. At the same time, measure the positive controls, including the high-binding compounds Sunitinib and chloroquine and the low-binding compound celecoxib. Establish an LC-MS/MS method for determining compound concentrations, and calibrate the peak area ratio of analyte/internal standard (Analyte/AIS) in the measured sample by the dilution factor to take it as an alternative concentration for the sample for data processing. The binding rate (Fb) of a compound in melanin was calculated as: […]
Ctest was the concentration of the compound in the melanin-incubated sample or the peak area ratio of the test compound to the internal standard. Ccontrol was the concentration of the compound in the blank control sample or the peak area ratio of the test compound to the internal standard. […]

VEGFR2 = VEGFR2 (Homo sapiens, UniProt P35968); assay: Kinase inhibition, Mobility Shift Assay/IMAP, VEGFR2; assay type: biochemical; set-up: purchased Carna 08-191
Excerpt: (§1) This assay directly monitored the ability of compounds to inhibit kinase phosphorylation by measuring non-phosphorylated and phosphorylated substrates in kinase reactions by using Mobility Shift Assays/IMAP™ analysis.
(§2) Read the conversion ratio data on CaliperEZ Reader II. Convert conversion rates into inhibition ratio data.
(§3) “Min” indicates the readout of the control well without the addition of enzymes; and “Max” indicates the readout of the control well with the addition of DMSO Fit IC50 values with XL Fit excel add-in version […].
(§4) X indicates the log value of compound concentration, and Y indicates the inhibition ratio (% inhibition).

EGFR = biological target: T1, EGFR (Homo sapiens, UniProt P00533); assay: Kinase inhibition, Mobility Shift Assay/IMAP, EGFR; assay type: biochemical
T1 construct: purchased Carna 08-115
Excerpt: as §1, §2, §3, §4

TIE2 = biological target: T2, TIE2 (Homo sapiens, UniProt Q02763); assay: Kinase inhibition, Mobility Shift Assay/IMAP, TIE2; assay type: biochemical
T2 construct: purchased BPS 40270
Excerpt: as §1, §2, §3, §4

T1 sequence (P00533 669-1210 limits assumed): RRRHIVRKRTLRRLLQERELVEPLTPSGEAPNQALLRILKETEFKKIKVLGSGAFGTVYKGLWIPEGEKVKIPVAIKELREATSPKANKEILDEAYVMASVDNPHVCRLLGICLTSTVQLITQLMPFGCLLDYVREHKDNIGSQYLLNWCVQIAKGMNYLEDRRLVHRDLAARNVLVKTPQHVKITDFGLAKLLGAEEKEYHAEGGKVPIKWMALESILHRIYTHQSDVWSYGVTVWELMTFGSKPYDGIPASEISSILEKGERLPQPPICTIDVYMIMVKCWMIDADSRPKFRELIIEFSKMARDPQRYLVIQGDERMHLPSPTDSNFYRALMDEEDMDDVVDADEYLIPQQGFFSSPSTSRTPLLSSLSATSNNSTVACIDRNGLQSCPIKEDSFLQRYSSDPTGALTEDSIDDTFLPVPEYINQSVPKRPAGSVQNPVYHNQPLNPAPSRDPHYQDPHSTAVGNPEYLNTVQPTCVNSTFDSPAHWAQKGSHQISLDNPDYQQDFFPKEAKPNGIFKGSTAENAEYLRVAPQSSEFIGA
Sequence of VEGFR2 (P35968 790-1356 limits assumed): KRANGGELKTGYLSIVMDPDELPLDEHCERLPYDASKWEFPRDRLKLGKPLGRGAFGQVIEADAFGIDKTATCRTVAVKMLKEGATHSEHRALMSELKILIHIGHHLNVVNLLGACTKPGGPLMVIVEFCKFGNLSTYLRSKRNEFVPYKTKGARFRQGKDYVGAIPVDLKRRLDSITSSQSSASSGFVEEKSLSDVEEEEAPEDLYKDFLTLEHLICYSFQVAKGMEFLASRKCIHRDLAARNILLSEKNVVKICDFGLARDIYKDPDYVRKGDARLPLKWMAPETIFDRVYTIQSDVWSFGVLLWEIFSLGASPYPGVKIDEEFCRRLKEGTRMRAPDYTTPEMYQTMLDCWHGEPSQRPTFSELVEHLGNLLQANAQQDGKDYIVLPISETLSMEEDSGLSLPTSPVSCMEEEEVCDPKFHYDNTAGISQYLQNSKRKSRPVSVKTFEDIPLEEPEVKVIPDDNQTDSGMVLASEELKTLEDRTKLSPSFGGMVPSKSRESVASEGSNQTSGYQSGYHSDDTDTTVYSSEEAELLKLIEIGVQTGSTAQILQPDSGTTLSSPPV
T2 sequence (Q02763 23-1124): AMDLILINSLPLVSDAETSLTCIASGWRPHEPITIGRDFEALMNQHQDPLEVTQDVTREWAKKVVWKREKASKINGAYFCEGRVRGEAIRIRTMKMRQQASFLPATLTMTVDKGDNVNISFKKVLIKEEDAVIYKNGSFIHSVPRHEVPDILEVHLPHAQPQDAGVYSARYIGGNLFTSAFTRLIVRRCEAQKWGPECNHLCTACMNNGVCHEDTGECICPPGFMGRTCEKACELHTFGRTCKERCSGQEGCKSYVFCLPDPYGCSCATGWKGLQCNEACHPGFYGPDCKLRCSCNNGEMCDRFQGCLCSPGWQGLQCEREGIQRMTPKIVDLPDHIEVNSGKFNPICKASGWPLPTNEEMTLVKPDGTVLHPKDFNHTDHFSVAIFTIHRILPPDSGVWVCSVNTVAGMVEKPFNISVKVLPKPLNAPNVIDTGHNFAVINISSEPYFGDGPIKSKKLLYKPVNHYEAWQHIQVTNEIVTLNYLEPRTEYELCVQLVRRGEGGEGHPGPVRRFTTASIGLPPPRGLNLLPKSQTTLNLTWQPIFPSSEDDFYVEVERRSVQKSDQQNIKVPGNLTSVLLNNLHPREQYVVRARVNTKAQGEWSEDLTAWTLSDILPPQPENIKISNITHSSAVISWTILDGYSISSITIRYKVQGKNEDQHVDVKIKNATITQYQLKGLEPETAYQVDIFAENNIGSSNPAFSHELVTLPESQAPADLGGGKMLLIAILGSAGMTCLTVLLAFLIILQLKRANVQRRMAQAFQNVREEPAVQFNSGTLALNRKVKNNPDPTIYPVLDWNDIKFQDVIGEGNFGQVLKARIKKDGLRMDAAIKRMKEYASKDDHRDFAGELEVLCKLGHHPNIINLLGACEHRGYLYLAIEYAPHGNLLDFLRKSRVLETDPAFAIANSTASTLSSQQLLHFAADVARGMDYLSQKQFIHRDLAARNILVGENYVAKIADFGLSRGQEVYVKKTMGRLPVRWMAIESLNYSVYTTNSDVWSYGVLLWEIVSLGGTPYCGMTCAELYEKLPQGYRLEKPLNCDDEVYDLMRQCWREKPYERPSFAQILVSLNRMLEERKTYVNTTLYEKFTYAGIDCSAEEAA

| Structure (SMILES) | fraction unbound at 2 h, 2 μM (melanin) | IC50 (VEGFR2) | IC50 (EGFR) | IC50 (TIE2) |
| --- | --- | --- | --- | --- |
| COc1cc(COc2nsc(NC(=O)NCCCCN3CC[C@H](F)C3)c2C(N)=O)cc(OC)c1 [Compound T062, (S)-3-((3,5-dimethoxybenzyl)oxy)-5-(3-(4-(3-fluoropyrrolidin-1-yl)butyl)ureido)isothiazole-4-carboxamide] | 0.0195 | 58.8 nM | > 60000 nM | – |
| COc1ccc(F)c(COc2nsc(NC(=O)NCCC3CCN(C)CC3)c2C(N)=O)c1F [Compound T109, 3-[(2,6-difluoro-3-methoxy-phenyl)methoxy]-5-[2-(1-methyl-4-piperidyl)ethylcarbamoylamino]isothiazole-4-carboxamide] | 0.0435 | 13.8 nM | 7450 nM | – |
| COc1ccc(Cl)c(COc2nsc(NC(=O)NCCCCN3CCCC3)c2C(N)=O)c1F [Compound T146] | – | 10.5 nM | 26100 nM | 739 nM |
| COc1ccc(COc2nsc(NC(=O)NCCCCN3CCCC3)c2C(N)=O)cn1 [Compound T033] | – | 51.9 nM | 54900 nM | 1460 nM |
| CC(C)(C)[Si](C)(C)OCCCNC(=O)Nc1snc(OCc2cc(C(=O)NC3CC3)ccc2F)c1C(N)=O [Compound T169, 5-[3-[tert-butyl(dimethyl)silyl]oxypropylcarbamoylamino]-3-[[5-(cyclopropylcarbamoyl)-2-fluoro-phenyl]methoxy]isothiazole-4-carboxamide] | – | 16.4 nM | > 60000 nM | > 60000 nM |
| NC(=O)c1c(OCc2cc(Cl)c3cncn3c2)nsc1NC(=O)NCCCCN1CCCC1 [Compound T051, 3-((8-chloroimidazo[1,5-a]pyridin-6-yl)methoxy)-5-(3-(4-(pyrrolidin-1-yl)butyl)ureido)isothiazole-4-carboxamide] | – | – | – | 3210 nM |
| O=C(NCCCN1CC[C@H](F)C1)Nc1snc(OCc2cc(C(=O)NC3CC3)ccc2F)c1C(=O)O [Compound T155, 3-[[5-(cyclopropylcarbamoyl)-2-fluoro-phenyl]methoxy]-5-[3-[(3S)-3-fluoropyrrolidin-1-yl]propylcarbamoylamino]isothiazole-4-carboxylic acid] | – | – | > 60000 nM | > 60000 nM |
| NC(=O)c1c(OCc2c(F)cc(Br)cc2F)nsc1Nc1cncc(OCCN2CCCC2)c1 [Compound T045, 3-((4-bromo-2,6-difluorobenzyl)oxy)-5-((5-(2-(pyrrolidin-1-yl)ethoxy)pyridin-3-yl)amino)isothiazole-4-carboxamide] | – | 22.1 nM | – | 230 nM |
| CN1CCN(CCCNC(=O)Nc2snc(OCc3cccc(C(=O)C4CC4)c3)c2C(N)=O)CC1 [Compound T086, 3-((3-(cyclopropanecarbonyl)benzyl)oxy)-5-(3-(3-(4-methylpiperazin-1-yl)propyl)ureido)isothiazole-4-carboxamide] | – | – | 6830 nM | 895 nM |
| NC(=O)c1c(OCc2cc(C(=O)O)ccc2F)nsc1NC(=O)NCCCN1CC[C@H](F)C1 [Compound T171, 3-[[4-carbamyl-5-[3-[(3S)-3-fluoropyrrolidin-1-yl]propylcarbamylamino]isothiazol-3-yl]oxymethyl]-4-fluoro-benzoic acid] | – | – | 29100 nM | 5850 nM |
| NC(=O)c1c(OCc2cccc(-n3cccn3)c2)nsc1NC(=O)NCCCCN1CCCC1 [Compound T068, 3-((3-(1H-pyrazol-1-yl)benzyl)oxy)-5-(3-(4-(pyrrolidin-1-yl)butyl)ureido)isothiazole-4-carboxamide] | – | 171 nM | 4410 nM | 1610 nM |
| COc1ccc(F)c(COc2nsc(NC(=O)NCCCN3CC[C@@H](F)C3)c2C(N)=O)c1F [Compound T121, 3-[(2,6-difluoro-3-methoxy-phenyl)methoxy]-5-[3-[(3R)-3-fluoropyrrolidin-1-yl]propylcarbamoylamino]isothiazole-4-carboxamide] | – | 40 nM | 17200 nM | 230 nM |

Next, values leading:

| fraction unbound at 2 h, 2 μM (melanin) | IC50 (VEGFR2) | IC50 (EGFR) | IC50 (TIE2) | Structure (SMILES) |
| --- | --- | --- | --- | --- |
| – | 0.41 nM | 10100 nM | 366 nM | CN1CCC(CCNC(=O)Nc2snc(OCc3cc(C(=O)NC4CC4)ccc3Cl)c2C(N)=O)CC1 [Compound T139, 3-[[2-chloro-5-(cyclopropylcarbamoyl)phenyl]methoxy]-5-[2-(1-methyl-4-piperidyl)ethylcarbamoylamino]isothiazole-4-carboxamide] |
| – | 0.45 nM | 15600 nM | 1740 nM | NC(=O)c1c(OCc2cc(C(=O)NC3CC3)ccc2Cl)nsc1NC(=O)NCCCN1CC[C@H](F)C1 [Compound T166, 3-[[2-chloro-5-(cyclopropylcarbamoyl)phenyl]methoxy]-5-[3-[(3S)-3-fluoropyrrolidin-1-yl]propylcarbamoylamino]isothiazole-4-carboxamide] |
| 0.0726 | 0.44 nM | 15500 nM | – | CN1CCN(CCCNC(=O)Nc2snc(OCc3cc(C(=O)NC4CC4)ccc3Cl)c2C(N)=O)CC1 [Compound T140, 3-[[2-chloro-5-(cyclopropylcarbamoyl)phenyl]methoxy]-5-[3-(4-methylpiperazin-1-yl)propylcarbamoylamino]isothiazole-4-carboxamide] |
| – | 3.05 nM | – | 7360 nM | N#CCCNC(=O)Nc1snc(OCc2cc(C(=O)NC3CC3)ccc2F)c1C(N)=O [Compound T162, 5-(2-cyanoethylcarbamoylamino)-3-[[5-(cyclopropylcarbamoyl)-2-fluoro-phenyl]methoxy]isothiazole-4-carboxamide] |
| – | 2.6 nM | – | 3260 nM | NC(=O)c1c(OCc2cc(C(=O)NC3CC3)ccc2F)nsc1NC(=O)NCCC(=O)O [Compound T172, 3-[[4-carbamoyl-3-[[5-(cyclopropylcarbamoyl)-2-fluoro-phenyl]methoxy]isothiazol-5-yl]carbamoylamino]propanoic acid] |
| – | 1.41 nM | – | 4270 nM | NC(=O)c1c(OCc2ccc(F)c(C(=O)NC3CC3)c2)nsc1NC(=O)NCCCN1CCNCC1 [Compound T160, 3-[[3-(cyclopropylcarbamoyl)-4-fluoro-phenyl]methoxy]-5-(3-piperazin-1-ylpropylcarbamoylamino)isothiazole-4-carboxamide] |
| 0.0316 | 1.6 nM | 11900 nM | – | NC(=O)c1c(OCc2cc(C(=O)NC3CC3)ccc2F)nsc1NC(=O)NCCCN1CC[C@H](O)C1 [Compound T105, 3-[[5-(cyclopropylcarbamoyl)-2-fluoro-phenyl]methoxy]-5-[3-[(3S)-3-hydroxypyrrolidin-1-yl]propylcarbamoylamino]isothiazole-4-carboxamide] |
| 0.0446 | 2.1 nM | > 60000 nM | – | COc1cc(OC)c(F)c(COc2nsc(NC(=O)NCCCCN3CCCC3)c2C(N)=O)c1F [Compound T137, 3-[(2,6-difluoro-3,5-dimethoxy-phenyl)methoxy]-5-(4-pyrrolidin-1-ylbutylcarbamoylamino)isothiazole-4-carboxamide] |
| 0.0398 | 2.6 nM | > 60000 nM | – | COc1cc(OC)c(F)c(COc2nsc(NC(=O)NCCCC3CCCN3C)c2C(N)=O)c1F (stereo not drawn) [Compound T138, 3-[(2,6-difluoro-3,5-dimethoxy-phenyl)methoxy]-5-[3-(1-methylpyrrolidin-2-yl)propylcarbamoylamino]isothiazole-4-carboxamide] |
| 0.0207 | 2.54 nM | > 60000 nM | – | COc1cc(OC)c(F)c(COc2nsc(NC(=O)NCCCN3CCN(C)CC3)c2C(N)=O)c1F [Compound T117, 3-[(2,6-difluoro-3,5-dimethoxy-phenyl)methoxy]-5-[3-(4-methylpiperazin-1-yl)propylcarbamoylamino]isothiazole-4-carboxamide] |
| 0.0285 | 1.8 nM | > 60000 nM | – | COc1cc(OC)c(F)c(COc2nsc(NC(=O)NCCCCN3CC[C@H](O)C3)c2C(N)=O)c1F [Compound T136, 3-[(2,6-difluoro-3,5-dimethoxy-phenyl)methoxy]-5-[4-[(3S)-3-hydroxypyrrolidin-1-yl]butylcarbamoylamino]isothiazole-4-carboxamide] |
